Assay results as given in patent publication US6737383B1, “Herbicidal oxadiazolidines” (priority 1999, dated 2004).

What was measured:
giant foxtail = assay: Test B pre/postemergence giant foxtail; type: in vivo, Setaria faberii
In short: (§1)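 Herbicidal effect was estimated by eye on a ten-point control scale after plants spent twelve to sixteen days in a greenhouse following soil or foliar treatment. Foliar sprays targeted plants at one to four leaves; all doses were formulated in a non-phytotoxic solvent with surfactant.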

surinam grass = assay: Test B pre/postemergence surinam grass; type: in vivo, Brachiaria decumbens
In short: as §1

pigweed = assay: Test B pre/postemergence pigweed; type: in vivo, Amaranthus retroflexus
In short: as §1

sugar beet = assay: Test B pre/postemergence sugar beet; type: in vivo, Beta vulgaris
In short: as §1

velvetleaf = assay: Test B pre/postemergence velvetleaf; type: in vivo, Abutilon theophrasti
In short: as §1

wheat = assay: Test B pre/postemergence wheat; type: in vivo, Triticum aestivum
In short: as §1

soybean = assay: Test B pre/postemergence soybean; type: in vivo, Glycine max
In short: as §1

crabgrass = assay: Test B pre/postemergence crabgrass; type: in vivo, Digitaria sanguinalis
In short: as §1

wild oat = assay: Test B pre/postemergence wild oat; type: in vivo, Avena fatua
In short: as §1

blackgrass = assay: Test B pre/postemergence blackgrass; type: in vivo, Alopecurus myosuroides
In short: as §1

morningglory = assay: Test B pre/postemergence morningglory; type: in vivo, Ipomoea hederacea
In short: as §1

cocklebur = assay: Test B pre/postemergence cocklebur; type: in vivo, Xanthium strumarium
In short: as §1

rape = assay: Test B pre/postemergence rape; type: in vivo, Brassica napus
In short: as §1

bedstraw = assay: Test B pre/postemergence bedstraw; type: in vivo, Galium aparine
In short: as §1

purple nutsedge = assay: Test B pre/postemergence purple nutsedge; type: in vivo, Cyperus rotundus
In short: as §1

corn = assay: Test B pre/postemergence corn; type: in vivo, Zea mays
In short: as §1

[1] = Postemergence, Rate 62 g/ha, scale 0 to 10, 0 is no effect, 10 is complete control
[2] = Postemergence, Rate 125 g/ha, scale of 0 to 10 where 0 is no effect and 10 is complete control
[3] = Postemergence, Rate 500 g/ha, scale 0 (no effect) to 10 (complete control)
[4] = Preemergence, Rate 250 g/ha, scale 0 (no effect) to 10 (complete control)
[5] = Rate 62 g/ha, Preemergence, scale 0 to 10
[6] = Rate 125 g/ha, Preemergence, scale 0 to 10 (0 no effect, 10 complete control)
[7] = Rate 250 g/ha, Postemergence, scale 0 to 10, 0 is no effect, 10 is complete control
[8] = Rate 500 g/ha, Preemergence, scale 0 to 10 (0 no effect, 10 complete control)
[9] = Preemergence, Rate 31 g/ha, visual rating, scale 0 to 10 (0 no effect, 10 complete control)
[10] = Preemergence, Rate 62 g/ha, scale of 0 to 10 where 0 is no effect and 10 is complete control
[11] = Preemergence, Rate 125 g/ha, scale of 0 to 10 where 0 is no effect and 10 is complete control

CCOC(CC)n1c(=O)on(C(=O)N(c2ccc(F)cc2F)C(C)C)c1=O (stereo not drawn) [Compound 774]
0: Plant response rating, Giant foxtail (giant foxtail; [1]) | Giant foxtail plant response rating (giant foxtail; [2]) | Giant foxtail plant response rating (giant foxtail; [3]) | Giant foxtail plant response rating (giant foxtail; [4]) | Giant foxtail plant response rating (giant foxtail; [5]) | Giant foxtail plant response rating (giant foxtail; [6]) | Giant foxtail plant response rating (giant foxtail; [7]) | Giant foxtail plant response rating (giant foxtail; [8]) | Plant response rating, B. signalgrass (surinam grass; [1]) | B. signalgrass plant response rating (surinam grass; [2]) | B. signalgrass plant response rating (surinam grass; [4]) | B. signalgrass plant response rating (surinam grass; Rate 62 g/ha, Preemergence, scale 0 (no effect) to 10 (complete control)) | B. signalgrass plant response rating (surinam grass; [6]) | B. signalgrass plant response rating (surinam grass; [7]) | B. signalgrass plant response rating (surinam grass; Rate 500 g/ha, Postemergence, scale 0 to 10, 0 is no effect, 10 is complete control) | B. signalgrass plant response rating (surinam grass; [8]) | Plant response rating, Redroot pigweed (pigweed; [1]) | Redroot pigweed plant response rating (pigweed; [2]) | Redroot pigweed plant response rating (pigweed; [3]) | Redroot pigweed plant response rating (pigweed; [5]) | Redroot pigweed plant response rating (pigweed; [6]) | Redroot pigweed plant response rating (pigweed; [7]) | Redroot pigweed plant response rating (pigweed; [8]) | Plant response rating, Sugarbeets (sugar beet; [1]) | Sugarbeets plant response rating (sugar beet; [3]) | Sugarbeets plant response rating (sugar beet; [5]) | Sugarbeets plant response rating (sugar beet; [6]) | Sugarbeets plant response rating (sugar beet; [7]) | Sugarbeets plant response rating (sugar beet; [8]) | Plant response rating, Velvetleaf (velvetleaf; [1]) | Velvetleaf plant response rating (velvetleaf; [3]) | Velvetleaf plant response rating (velvetleaf; [5]) | Velvetleaf plant response rating (velvetleaf; [6]) | Velvetleaf plant response rating (velvetleaf; [7]) | Velvetleaf plant response rating (velvetleaf; [8]) | Plant response rating, Wheat (wheat; [1]) | Wheat plant response rating (wheat; [3]) | Wheat plant response rating (wheat; [5]) | Wheat plant response rating (wheat; [6]) | Wheat plant response rating (wheat; [7]) | Wheat plant response rating (wheat; [8]) | Plant response rating, Soybean (soybean; [1]) | Soybean plant response rating (soybean; [3]) | Soybean plant response rating (soybean; [5]) | Soybean plant response rating (soybean; [6]) | Soybean plant response rating (soybean; [7]) | Soybean plant response rating (soybean; [8]) | Plant response rating, Crabgrass (crabgrass; [1]) | Crabgrass plant response rating (crabgrass; [2]) | Crabgrass plant response rating (crabgrass; [3]) | Crabgrass plant response rating (crabgrass; [4]) | Crabgrass plant response rating (crabgrass; [5]) | Crabgrass plant response rating (crabgrass; [6]) | Crabgrass plant response rating (crabgrass; [7]) | Crabgrass plant response rating (crabgrass; [8]) | Plant response rating, Wild oats (wild oat; [1]) | Wild oats plant response rating (wild oat; [3]) | Wild oats plant response rating (wild oat; [5]) | Wild oats plant response rating (wild oat; [6]) | Wild oats plant response rating (wild oat; [7]) | Wild oats plant response rating (wild oat; [8]) | Plant response rating, Blackgrass (blackgrass; [1]) | Blackgrass plant response rating (blackgrass; [2]) | Blackgrass plant response rating (blackgrass; [3]) | Blackgrass plant response rating (blackgrass; [4]) | Blackgrass plant response rating (blackgrass; [5]) | Blackgrass plant response rating (blackgrass; [6]) | Blackgrass plant response rating (blackgrass; [7]) | Blackgrass plant response rating (blackgrass; [8]) | Plant response rating, Morningglory (morningglory; [1]) | Morningglory plant response rating (morningglory; [2]) | Morningglory plant response rating (morningglory; [3]) | Morningglory plant response rating (morningglory; [5]) | Morningglory plant response rating (morningglory; [6]) | Morningglory plant response rating (morningglory; [7]) | Morningglory plant response rating (morningglory; [8]) | Plant response rating, Cocklebur (cocklebur; [1]) | Cocklebur plant response rating (cocklebur; [2]) | Cocklebur plant response rating (cocklebur; [3]) | Cocklebur plant response rating (cocklebur; [4]) | Cocklebur plant response rating (cocklebur; [5]) | Cocklebur plant response rating (cocklebur; [6]) | Cocklebur plant response rating (cocklebur; [7]) | Cocklebur plant response rating (cocklebur; [8]) | Plant response rating, Rape (rape; [1]) | Rape plant response rating (rape; [2]) | Rape plant response rating (rape; [3]) | Rape plant response rating (rape; [5]) | Rape plant response rating (rape; [6]) | Rape plant response rating (rape; [7]) | Rape plant response rating (rape; [8]) | Plant response rating, Bedstraw (bedstraw; [1]) | Bedstraw plant response rating (bedstraw; [2]) | Bedstraw plant response rating (bedstraw; [3]) | Bedstraw plant response rating (bedstraw; [4]) | Bedstraw plant response rating (bedstraw; [5]) | Bedstraw plant response rating (bedstraw; [6]) | Bedstraw plant response rating (bedstraw; [7]) | Bedstraw plant response rating (bedstraw; [8]) | Plant response rating, Nutsedge (purple nutsedge; [1]) | Nutsedge plant response rating (purple nutsedge; [2]) | Nutsedge plant response rating (purple nutsedge; [3]) | Nutsedge plant response rating (purple nutsedge; [5]) | Nutsedge plant response rating (purple nutsedge; [6]) | Nutsedge plant response rating (purple nutsedge; [7]) | Nutsedge plant response rating (purple nutsedge; [8]) | Plant response rating, Corn (corn; [1]) | Corn plant response rating (corn; [2]) | Corn plant response rating (corn; [3]) | Corn plant response rating (corn; [4]) | Corn plant response rating (corn; [5]) | Corn plant response rating (corn; [6]) | Corn plant response rating (corn; [7]) | Corn plant response rating (corn; [8])

CC(C)N(C(=O)n1oc(=O)n(Cc2nnc(-c3ccccc3)o2)c1=O)c1ccccc1 [Compound 716]
0: Giant foxtail plant response rating (giant foxtail; [9]) | Giant foxtail plant response rating (giant foxtail; [10]) | Plant response rating, Giant foxtail (giant foxtail; [11]) | Giant foxtail plant response rating (giant foxtail; [4]) | B. signalgrass plant response rating (surinam grass; [9]) | B. signalgrass plant response rating (surinam grass; [10]) | Plant response rating, B. signalgrass (surinam grass; [11]) | B. signalgrass plant response rating (surinam grass; [4]) | Redroot pigweed plant response rating (pigweed; [10]) | Plant response rating, Redroot pigweed (pigweed; [11]) | Redroot pigweed plant response rating (pigweed; [4]) | Sugarbeets plant response rating (sugar beet; [10]) | Plant response rating, Sugarbeets (sugar beet; [11]) | Sugarbeets plant response rating (sugar beet; [4]) | Velvetleaf plant response rating (velvetleaf; [10]) | Plant response rating, Velvetleaf (velvetleaf; [11]) | Velvetleaf plant response rating (velvetleaf; [4]) | Wheat plant response rating (wheat; [10]) | Plant response rating, Wheat (wheat; [11]) | Wheat plant response rating (wheat; [4]) | Soybean plant response rating (soybean; [10]) | Plant response rating, Soybean (soybean; [11]) | Soybean plant response rating (soybean; [4]) | Crabgrass plant response rating (crabgrass; [9]) | Crabgrass plant response rating (crabgrass; [10]) | Plant response rating, Crabgrass (crabgrass; [11]) | Crabgrass plant response rating (crabgrass; [4]) | Wild oats plant response rating (wild oat; [10]) | Plant response rating, Wild oats (wild oat; [11]) | Wild oats plant response rating (wild oat; [4]) | Blackgrass plant response rating (blackgrass; [9]) | Blackgrass plant response rating (blackgrass; [10]) | Plant response rating, Blackgrass (blackgrass; [11]) | Blackgrass plant response rating (blackgrass; [4]) | Morningglory plant response rating (morningglory; [10]) | Plant response rating, Morningglory (morningglory; [11]) | Morningglory plant response rating (morningglory; [4]) | Cocklebur plant response rating (cocklebur; [9]) | Cocklebur plant response rating (cocklebur; [10]) | Plant response rating, Cocklebur (cocklebur; [11]) | Cocklebur plant response rating (cocklebur; [4]) | Rape plant response rating (rape; [10]) | Plant response rating, Rape (rape; [11]) | Rape plant response rating (rape; [4]) | Bedstraw plant response rating (bedstraw; [9]) | Bedstraw plant response rating (bedstraw; [10]) | Plant response rating, Bedstraw (bedstraw; [11]) | Bedstraw plant response rating (bedstraw; [4]) | Nutsedge plant response rating (purple nutsedge; [10]) | Plant response rating, Nutsedge (purple nutsedge; [11]) | Corn plant response rating (corn; [9]) | Corn plant response rating (corn; [10]) | Plant response rating, Corn (corn; [11]) | Corn plant response rating (corn; [4])
